Measurements reported in paper doi:10.1101/2023.10.24.563163v2, “Targeting cancer with small molecule pan-KRAS degraders” (biorxiv, 2024).

Key:
[1] = target: T1, VCB:KRAS ternary complex partners (Homo sapiens, UniProt P01116+P40337, P01116:C118S/P01116:G12D); experiment: biochemical; design: SPR binary and ternary complex binding affinity and kinetics; conditions: SPR; for kon: read-out: SPR VCB+KRAS^G12D kon [1/(M s)]
T1 construct: VCB (Avi-tagged, biotinylated for SPR) plus KRAS 1-169 C118S GDP; E. coli, His6 tags removed; with Elongin-C; Elongin-B
Description: With the objective of identifying molecules that potently degrade multiple KRAS mutants we next sought to employ structure-based design using the solved ternary co-crystal structure of compound 3 to improve ternary complex stability and intracellular VHL engagement. […] Analysis of the VCB:compound 3:KRAS^G12V co-crystal structure (Fig. 1H) highlighted an opportunity to enhance interactions within the ternary complex by improving π-stacking between the exit vector amide of the VHL ligand and Tyr112. We therefore switched the amide for an isoxazole, which has been previously reported to improve VCB affinity in this position in other contexts ([22]), yielding compound 4 (Fig. 2A). A ternary complex co-crystal structure of VCB:compound 4:KRAS^G12V (PDB 8QW7) confirmed a consistent overall binding mode to that observed for compound 3 (RMSD = 0.72 Å), with compound 4 able to engage in π-stacking interaction between the isoxazole and Tyr112 of VCB as designed (Fig. 2B). […] FP, SPR and cellular target engagement studies support a minor improvement in binary VHL engagement for compound 4, with moderate cooperativity retained (fig. S2A-C, table S1). […] We then investigated the impact of these structural changes on degradation kinetics in live HiBiT-tagged GP5d cells (fig. S3A-D). […] Aiming to measure ternary complex stability, we noted that the FP assay reached the limits of quantification due to ternary KD approaching that of the assay probe (fig. S8B).

VHL-NanoLuc = target: T2, VHL-NanoLuc (Homo sapiens, UniProt P40337); experiment: NanoBRET VHL target engagement; assay type: cell-based
T2 construct: VHL-NanoLuc fusion (Promega) transfected into HEK293; endogenous elongins
T2 sequence (P40337 whole entry, the tested form may be a part): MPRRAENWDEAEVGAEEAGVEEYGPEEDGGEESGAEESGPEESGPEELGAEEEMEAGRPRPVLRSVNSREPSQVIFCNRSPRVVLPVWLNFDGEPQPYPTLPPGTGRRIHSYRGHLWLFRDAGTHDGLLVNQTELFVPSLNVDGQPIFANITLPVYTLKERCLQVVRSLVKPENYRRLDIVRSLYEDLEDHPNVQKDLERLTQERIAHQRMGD

T1 sequence (Q15370 1-104): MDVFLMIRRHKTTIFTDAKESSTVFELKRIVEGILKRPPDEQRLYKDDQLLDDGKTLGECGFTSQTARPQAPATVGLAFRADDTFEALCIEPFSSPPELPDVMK
T1 sequence (P01116 1-169 G12D/C118S): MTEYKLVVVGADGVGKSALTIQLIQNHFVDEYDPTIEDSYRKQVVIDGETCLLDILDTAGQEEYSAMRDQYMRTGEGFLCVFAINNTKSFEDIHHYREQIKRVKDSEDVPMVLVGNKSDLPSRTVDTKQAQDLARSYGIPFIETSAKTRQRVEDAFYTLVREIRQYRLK
T1 sequence (Q15369 17-112, further chain): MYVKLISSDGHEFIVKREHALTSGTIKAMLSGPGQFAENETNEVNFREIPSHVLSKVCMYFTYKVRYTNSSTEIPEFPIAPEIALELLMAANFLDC
T1 sequence (P40337 54-213): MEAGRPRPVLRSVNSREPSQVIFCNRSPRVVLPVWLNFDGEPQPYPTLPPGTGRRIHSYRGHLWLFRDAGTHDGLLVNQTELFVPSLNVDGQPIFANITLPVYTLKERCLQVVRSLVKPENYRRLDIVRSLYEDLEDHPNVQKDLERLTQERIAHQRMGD

Kd [1] | kon [1] | IC50 (VHL-NanoLuc) | Compound
0.03 ± 0.006 µM | 242000 M⁻¹ s⁻¹ | – | Cc1ncsc1-c1ccc(CNC(=O)[C@@H]2C[C@@H](O)CN2C(=O)[C@@H](NC(=O)CCCCCN2CCCN(c3nccc(-c4noc([C@@]5(C)CCCc6sc(N)c(C#N)c65)n4)n3)[C@@H](C)C2)C(C)(C)C)cc1 [compound 3]
– | 224000 M⁻¹ s⁻¹ | 5 µM | Cc1ncsc1-c1ccc(CNC(=O)[C@@H]2C[C@@H](O)CN2C(=O)[C@@H](NC(=O)COCCCN2CCCN(c3nccc(-c4noc([C@@]5(C)CCCc6sc(N)c(C#N)c65)n4)n3)[C@@H](C)C2)C(C)(C)C)cc1 [compound 2]
